Laboratory results taken from ChEMBL document CHEMBL1201862, “PubChem BioAssay data set” (2004).
Active and inactive are the calls of the source.

What was measured:
Bcl-2-like protein 10 = biological target: T1, Bcl-2-like protein 10 (Homo sapiens, UniProt Q9HD36); assay: Bcl-B/TR3 peptide binding disruption – biochemical, fluorescence polarization, FITC-TR3 peptide, selectivity assay for Bfl-1 inhibitor project, primary screen (AID 748);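 further: fluorescence polarization from a fluorescein-labelled TR3 peptide binding purified Bcl-B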
T1 sequence (Q9HD36 whole entry): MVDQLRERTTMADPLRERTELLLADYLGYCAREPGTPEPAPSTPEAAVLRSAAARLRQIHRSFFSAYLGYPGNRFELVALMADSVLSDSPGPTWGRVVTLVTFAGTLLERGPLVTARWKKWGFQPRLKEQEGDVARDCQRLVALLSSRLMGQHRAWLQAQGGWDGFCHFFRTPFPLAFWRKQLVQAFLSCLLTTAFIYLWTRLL

[1] = HPDE-C7 pancreatic duct cell viability loss – fluorescence, HTS (AID 430); format: functional, cell-based; conditions: Homo sapiens
Estrogen receptor = biological target: T2, Estrogen receptor (Homo sapiens, UniProt P03372);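 further: potency for inhibiting coactivator peptide recruitment to the receptor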
T2 sequence (P03372 whole entry): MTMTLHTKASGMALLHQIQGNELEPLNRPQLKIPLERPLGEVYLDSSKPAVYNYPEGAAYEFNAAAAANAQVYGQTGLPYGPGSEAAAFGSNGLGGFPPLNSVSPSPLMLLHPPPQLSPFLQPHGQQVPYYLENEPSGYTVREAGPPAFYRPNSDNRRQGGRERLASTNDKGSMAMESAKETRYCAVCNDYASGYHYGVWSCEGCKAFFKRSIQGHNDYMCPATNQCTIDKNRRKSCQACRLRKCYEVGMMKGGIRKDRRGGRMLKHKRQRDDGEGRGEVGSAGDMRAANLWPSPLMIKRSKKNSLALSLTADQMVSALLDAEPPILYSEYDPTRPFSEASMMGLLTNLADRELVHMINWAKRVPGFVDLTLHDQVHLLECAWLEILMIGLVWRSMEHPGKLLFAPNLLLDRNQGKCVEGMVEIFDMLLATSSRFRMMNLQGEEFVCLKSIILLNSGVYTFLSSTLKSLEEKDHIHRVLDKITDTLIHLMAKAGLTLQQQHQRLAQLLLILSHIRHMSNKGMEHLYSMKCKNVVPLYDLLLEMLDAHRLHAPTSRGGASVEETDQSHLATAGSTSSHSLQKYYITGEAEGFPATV

[2] = viability loss of HPDE-C7K cells – cell-based, fluorescence, HTS, primary screen (AID 431); format: functional; conditions: Homo sapiens
Estrogen receptor beta [3] = biological target: T3, Estrogen receptor beta (Homo sapiens, UniProt Q92731);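 further: recombinant ER-beta bound to coactivator SRC1 peptide in presence of estradiol agonist; inhibitors block coactivator peptide binding and lower the FRET signal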
T3 sequence (Q92731 whole entry): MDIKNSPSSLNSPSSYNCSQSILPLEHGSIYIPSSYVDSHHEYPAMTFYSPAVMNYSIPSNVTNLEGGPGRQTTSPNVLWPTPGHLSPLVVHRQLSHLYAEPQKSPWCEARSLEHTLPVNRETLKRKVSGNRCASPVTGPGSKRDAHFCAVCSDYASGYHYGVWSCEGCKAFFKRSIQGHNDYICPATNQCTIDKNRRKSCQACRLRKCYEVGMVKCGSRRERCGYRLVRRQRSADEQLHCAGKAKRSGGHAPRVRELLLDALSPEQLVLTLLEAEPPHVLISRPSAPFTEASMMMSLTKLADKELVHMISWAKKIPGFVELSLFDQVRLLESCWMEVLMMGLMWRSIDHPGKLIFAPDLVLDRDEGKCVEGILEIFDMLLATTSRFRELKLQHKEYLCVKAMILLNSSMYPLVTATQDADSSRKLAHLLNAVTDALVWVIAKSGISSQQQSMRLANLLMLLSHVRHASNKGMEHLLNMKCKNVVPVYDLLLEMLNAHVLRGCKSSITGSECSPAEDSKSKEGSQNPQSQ

Estrogen receptor beta [4] = biological target: T3, Estrogen receptor beta; assay: blockers of SRC-3 recruitment to ERβ – biochemical, ELISA, streptavidin-HRP readout, orthogonal assay, confirmation (AID 1060)
[5] = biological target: DNA dC->dU-editing enzyme APOBEC-3A (Homo sapiens, UniProt P31941); assay: Dose Response confirmation of small molecule APOBEC3A DNA Deaminase Inhibitors via a fluorescence-based single-stranded DNA deaminase assay. [Related pubchem assays (depositor defined):AID493011, AID493024]; format: functional
DNA dC->dU-editing enzyme APOBEC-3A, sequence (P31941 whole entry): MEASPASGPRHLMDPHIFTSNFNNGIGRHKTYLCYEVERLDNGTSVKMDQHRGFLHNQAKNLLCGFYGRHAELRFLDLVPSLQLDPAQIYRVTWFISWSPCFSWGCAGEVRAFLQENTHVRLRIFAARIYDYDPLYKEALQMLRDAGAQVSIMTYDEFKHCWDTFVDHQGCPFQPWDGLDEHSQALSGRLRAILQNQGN

[6] = biological target: DNA dC->dU-editing enzyme APOBEC-3G (Homo sapiens, UniProt Q9HC16); format: functional;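 further: Dose-response counterscreen measuring inhibition of APOBEC3G DNA deaminase activity, run while confirming APOBEC3A inhibitors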
DNA dC->dU-editing enzyme APOBEC-3G, sequence (Q9HC16 whole entry): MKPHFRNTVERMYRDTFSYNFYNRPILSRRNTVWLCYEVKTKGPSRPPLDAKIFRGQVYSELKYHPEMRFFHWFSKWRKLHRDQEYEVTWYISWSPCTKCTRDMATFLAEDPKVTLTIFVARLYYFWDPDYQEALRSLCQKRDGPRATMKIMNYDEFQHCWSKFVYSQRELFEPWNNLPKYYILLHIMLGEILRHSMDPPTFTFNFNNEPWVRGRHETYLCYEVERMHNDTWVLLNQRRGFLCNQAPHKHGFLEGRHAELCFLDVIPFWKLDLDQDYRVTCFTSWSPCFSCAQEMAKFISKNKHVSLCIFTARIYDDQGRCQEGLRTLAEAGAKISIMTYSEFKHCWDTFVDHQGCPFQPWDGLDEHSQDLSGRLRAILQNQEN

Protein Tat = biological target: T4, Protein Tat (Human immunodeficiency virus type 1 group M subtype B (isolate HXB2)(HIV-1), UniProt P04608); format: functional;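 further: tat binding to TAR RNA read out by fluorescence polarization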
T4 sequence (P04608 whole entry): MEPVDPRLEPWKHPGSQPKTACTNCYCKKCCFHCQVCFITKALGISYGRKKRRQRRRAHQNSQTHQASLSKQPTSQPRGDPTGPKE

Coagulation factor XII = Coagulation factor XII (Homo sapiens, UniProt P00748); format: functional;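 further: activated factor XIIa alpha cleaving a fluorogenic AMC peptide substrate; inhibitor potency from loss of enzyme activity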
Coagulation factor XII, sequence (P00748 20-372 limits assumed): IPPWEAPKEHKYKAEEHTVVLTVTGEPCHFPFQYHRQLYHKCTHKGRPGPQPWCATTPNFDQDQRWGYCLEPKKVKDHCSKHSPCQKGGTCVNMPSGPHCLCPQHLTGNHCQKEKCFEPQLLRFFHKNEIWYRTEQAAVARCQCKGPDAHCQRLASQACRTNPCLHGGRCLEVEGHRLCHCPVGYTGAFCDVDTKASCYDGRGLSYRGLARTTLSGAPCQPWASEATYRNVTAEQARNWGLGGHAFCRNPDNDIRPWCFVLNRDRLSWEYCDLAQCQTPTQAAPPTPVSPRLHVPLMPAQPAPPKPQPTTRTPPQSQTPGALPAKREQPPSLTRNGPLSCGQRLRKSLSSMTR
Coagulation factor XII, sequence (P00748 373-615 limits assumed): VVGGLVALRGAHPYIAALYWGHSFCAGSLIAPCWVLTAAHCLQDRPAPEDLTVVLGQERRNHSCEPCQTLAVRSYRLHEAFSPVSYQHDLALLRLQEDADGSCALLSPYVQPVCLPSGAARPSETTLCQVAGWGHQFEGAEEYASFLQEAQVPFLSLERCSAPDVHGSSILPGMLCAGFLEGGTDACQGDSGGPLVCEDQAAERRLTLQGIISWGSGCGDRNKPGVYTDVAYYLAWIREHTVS

[7] = biological target: Glyceraldehyde-3-phosphate dehydrogenase (Homo sapiens, UniProt P04406)
Glyceraldehyde-3-phosphate dehydrogenase, sequence (P04406 whole entry): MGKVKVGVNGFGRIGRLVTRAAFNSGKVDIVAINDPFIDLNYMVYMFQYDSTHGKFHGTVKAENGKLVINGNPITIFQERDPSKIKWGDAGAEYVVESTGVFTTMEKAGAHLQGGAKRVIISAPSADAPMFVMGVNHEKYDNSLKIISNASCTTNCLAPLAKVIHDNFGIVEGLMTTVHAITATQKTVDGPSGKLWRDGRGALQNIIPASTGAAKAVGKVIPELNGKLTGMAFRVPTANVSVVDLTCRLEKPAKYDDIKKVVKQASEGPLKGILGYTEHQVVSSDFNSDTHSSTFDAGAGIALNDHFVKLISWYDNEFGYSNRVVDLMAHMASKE

[8] = biological target: Alkaline phosphatase, placental type (Homo sapiens, UniProt P05187); assay: human placental alkaline phosphatase inhibition – biochemical, luminescence, confirmation (AID 1512); format: functional
Alkaline phosphatase, placental type, sequence (P05187 whole entry): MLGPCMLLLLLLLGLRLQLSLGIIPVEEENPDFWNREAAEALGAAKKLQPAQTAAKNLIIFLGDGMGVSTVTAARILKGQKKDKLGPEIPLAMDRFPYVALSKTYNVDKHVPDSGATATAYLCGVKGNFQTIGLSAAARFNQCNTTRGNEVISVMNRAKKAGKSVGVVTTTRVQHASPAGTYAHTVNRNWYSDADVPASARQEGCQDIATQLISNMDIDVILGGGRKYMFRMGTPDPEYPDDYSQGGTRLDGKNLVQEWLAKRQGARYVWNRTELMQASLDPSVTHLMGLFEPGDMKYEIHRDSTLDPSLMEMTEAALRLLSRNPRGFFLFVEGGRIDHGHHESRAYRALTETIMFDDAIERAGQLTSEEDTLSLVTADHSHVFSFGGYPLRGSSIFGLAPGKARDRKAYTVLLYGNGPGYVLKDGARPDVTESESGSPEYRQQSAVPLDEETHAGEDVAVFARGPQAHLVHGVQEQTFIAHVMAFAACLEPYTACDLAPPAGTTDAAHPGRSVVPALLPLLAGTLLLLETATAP

[9] = biological target: T5, Alkaline phosphatase, tissue-nonspecific isozyme (Homo sapiens, UniProt P05186); assay: potency against alkaline phosphatase TNAP – biochemical, luminescent, dose response, SAR follow-up (AID 1056)
T5 sequence (P05186 whole entry): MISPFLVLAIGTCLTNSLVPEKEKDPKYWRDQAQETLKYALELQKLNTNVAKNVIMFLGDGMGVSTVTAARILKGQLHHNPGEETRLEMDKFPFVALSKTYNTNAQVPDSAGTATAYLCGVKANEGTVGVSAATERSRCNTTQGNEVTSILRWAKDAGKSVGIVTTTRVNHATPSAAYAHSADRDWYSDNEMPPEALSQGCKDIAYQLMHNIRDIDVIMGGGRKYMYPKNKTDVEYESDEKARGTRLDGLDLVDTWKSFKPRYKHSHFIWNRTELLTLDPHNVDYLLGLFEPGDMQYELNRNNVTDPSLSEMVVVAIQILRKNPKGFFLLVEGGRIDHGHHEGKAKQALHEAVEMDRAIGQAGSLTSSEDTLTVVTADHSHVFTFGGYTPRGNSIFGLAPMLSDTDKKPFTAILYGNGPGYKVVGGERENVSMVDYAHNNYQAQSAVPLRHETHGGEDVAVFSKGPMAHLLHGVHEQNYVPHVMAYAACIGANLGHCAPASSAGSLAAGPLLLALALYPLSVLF

[10] = biological target: Eukaryotic translation initiation factor 4H (Homo sapiens, UniProt Q15056); assay: eIF4H binding inhibition – biochemical, uHTS, fluorescence polarization, translation initiation inhibitor project, primary screen (AID 2012)
[11] = biological target: Polyadenylate-binding protein 1 (Homo sapiens, UniProt P11940); assay: blockers of PABP interaction with poly(A) – biochemical, fluorescence polarization, […] (AID 2014)
Polyadenylate-binding protein 1, sequence (P11940 whole entry): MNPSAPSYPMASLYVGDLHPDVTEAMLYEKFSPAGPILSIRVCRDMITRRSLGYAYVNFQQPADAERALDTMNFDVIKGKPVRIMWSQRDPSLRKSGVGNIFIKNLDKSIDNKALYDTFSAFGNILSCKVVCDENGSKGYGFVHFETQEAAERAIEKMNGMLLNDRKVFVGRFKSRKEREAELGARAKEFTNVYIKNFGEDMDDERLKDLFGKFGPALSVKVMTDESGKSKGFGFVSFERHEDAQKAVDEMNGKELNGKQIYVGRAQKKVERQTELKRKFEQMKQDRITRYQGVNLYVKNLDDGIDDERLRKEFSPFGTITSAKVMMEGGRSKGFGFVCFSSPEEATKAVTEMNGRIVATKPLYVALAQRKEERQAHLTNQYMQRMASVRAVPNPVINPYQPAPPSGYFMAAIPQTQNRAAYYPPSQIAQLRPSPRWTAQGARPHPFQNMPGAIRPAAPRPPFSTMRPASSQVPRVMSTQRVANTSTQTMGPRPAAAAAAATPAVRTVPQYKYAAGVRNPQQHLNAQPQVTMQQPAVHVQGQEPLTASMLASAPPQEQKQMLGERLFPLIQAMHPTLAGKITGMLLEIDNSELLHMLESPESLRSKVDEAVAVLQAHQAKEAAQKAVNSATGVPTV

COc1ccc2c(c1)c(=O)oc1cc(OCC(=O)N3CCC(C)CC3)ccc12
IC50 (Bcl-2-like protein 10): 31.8 µM (active)
EC50 [1]: > 20 µM (not active)
IC50 (Estrogen receptor): 11.7 µM (active)
EC50 [2]: > 20 µM (not active)
IC50 (Estrogen receptor beta [3]): 5.31 µM (active)
IC50 (Estrogen receptor beta [4]): 14.3 µM (not active)
IC50 [5]: 21.6 µM (active)
IC50 [6]: > 100 µM (inactive)
IC50 (Protein Tat): > 100 µM (active)

COc1cccc(NC(C(=O)Nc2cccc(C(C)=O)c2)c2ccccc2)c1 (configuration not stated)
IC50 (Coagulation factor XII): > 50 µM (inactive)

Cc1n[nH]c2c1C(=O)CC(c1ccc(F)cc1)C2 (configuration not stated)
IC50 [7]: > 100 µM (not active)
IC50 [8]: > 100 µM (inactive)
IC50 [9]: 14.4 µM (active)

CCCn1c2c(c(=N)c3c1CCC3)CCC2
IC50 [10]: > 100 µM (inactive)
IC50 [11]: 4.08 µM (active)
IC50 [5]: 2.76 µM (active)
IC50 [6]: 2.66 µM (active)
